Assay results published in US12697330B2, “Therapeutic methods using vadadustat” (Akebia Therapeutics, Inc., priority 2021, dated 2026).

Key:
[1] = test system: erythropoietin (EPO); assay: Phase 2 study, Main Study: pharmacodynamics, Baseline-Unadjusted serum EPO concentration; format: in vivo, human
Experimental: (§1) PK/PD Endpoints. An exposure-response analysis of vadadustat and PD measures were conducted as deemed appropriate. The PK parameters included (but were not limited to) the following: area under concentration-time curve from dosing to last measurable concentration (AUClast), area under concentration-time curve from dosing to infinity (AUCinf), Cmax, apparent total body clearance (CL/F), apparent volume of distribution (Vd/F), and terminal half-life (t1/2). The PD parameters included (but were not limited to) the following: EPO, reticulocytes, iron, ferritin, TIBC, and hepcidin.
(§2) PK population: included all randomized subjects who received study drug (vadadustat or epoetin alfa) and had enough drug concentrations to estimate AUC and Cmax. Analysis of this population was based on the dose amount taken at the date of PK sampling for the vadadustat group.
(§3) PD parameters for serum EPO concentration are presented by epoetin alfa stratification for vadadustat treatment groups in Table 7, Table 8a and Table 8b (baseline-unadjusted) and Table 9, Table 10a and Table 10b (baseline-adjusted).

[2] = test system: erythropoietin (EPO); assay: Phase 2 study, Main Study: pharmacodynamics, Baseline-Adjusted serum EPO concentration; format: in vivo, human
Experimental: as §1, §2, §3

[3] = Vada 750 mg, Week 11, Low Epoetin Alfa Stratum ≤90 U/kg/week
[4] = Vada 750 mg, Week 13, High Epoetin Alfa Stratum >90 to <300 U/kg/week
[5] = Vada 750 mg, Week 13, Low Epoetin Alfa Stratum ≤90 U/kg/week
[6] = Vada 900 mg, Week 11, High Epoetin Alfa Stratum >90 to <300 U/kg/week
[7] = Vada 900 mg, Week 11, Low Epoetin Alfa Stratum ≤90 U/kg/week
[8] = Vada 150 mg, Week 11, High Epoetin Alfa Stratum >90 to <300 U/kg/week
[9] = Vada 150 mg, Week 11, Low Epoetin Alfa Stratum ≤90 U/kg/week
[10] = Vada 300 mg, Week 1 + 1, High Epoetin Alfa Stratum >90 to <300 U/kg/week
[11] = Vada 300 mg, Week 1 + 1, Low Epoetin Alfa Stratum ≤90 U/kg/week
[12] = Vada 300 mg, Week 1, High Epoetin Alfa Stratum >90 to <300 U/kg/week
[13] = Vada 300 mg, Week 1, Low Epoetin Alfa Stratum ≤90 U/kg/week
[14] = Vada 300 mg, Week 11, High Epoetin Alfa Stratum >90 to <300 U/kg/week
[15] = Vada 300 mg, Week 11, Low Epoetin Alfa Stratum ≤90 U/kg/week
[16] = Vada 450 mg, Week 1 + 1, High Epoetin Alfa Stratum >90 to <300 U/kg/week
[17] = Vada 450 mg, Week 1 + 1, Low Epoetin Alfa Stratum ≤90 U/kg/week
[18] = Vada 450 mg, Week 1, High Epoetin Alfa Stratum >90 to <300 U/kg/week
[19] = Vada 450 mg, Week 1, Low Epoetin Alfa Stratum ≤90 U/kg/week
[20] = Vada 450 mg, Week 11, High Epoetin Alfa Stratum >90 to <300 U/kg/week
[21] = Vada 450 mg, Week 11, Low Epoetin Alfa Stratum ≤90 U/kg/week
[22] = Vada 450 mg, Week 13, Low Epoetin Alfa Stratum ≤90 U/kg/week
[23] = Vada 600 mg, Week 1 + 1, High Epoetin Alfa Stratum >90 to <300 U/kg/week
[24] = Vada 600 mg, Week 1, High Epoetin Alfa Stratum >90 to <300 U/kg/week
[25] = Vada 600 mg, Week 11, High Epoetin Alfa Stratum >90 to <300 U/kg/week
[26] = Vada 600 mg, Week 11, Low Epoetin Alfa Stratum ≤90 U/kg/week
[27] = Vada 600 mg, Week 13, High Epoetin Alfa Stratum >90 to <300 U/kg/week
[28] = Vada 600 mg, Week 13, Low Epoetin Alfa Stratum ≤90 U/kg/week
[29] = Vada 750 mg, Week 11, High Epoetin Alfa Stratum >90 to <300 U/kg/week

SMILES: O=C(O)CNC(=O)c1ncc(-c2cccc(Cl)c2)cc1O [Compound 1, {[5-(3-chlorophenyl)-3-hydroxypyridine-2-carbonyl]amino}acetic acid]
- Baseline-Unadjusted serum EPO AUC0-5, Geometric Mean [1, 3]: 41.3 µg·h/mL
- Baseline-Unadjusted serum EPO Cmax, Geometric Mean [1, 3]: 12.5 µg/mL
- Baseline-Unadjusted serum EPO Tmax, Median [1, 3]: 4.50 h
- Baseline-Unadjusted serum EPO AUC0-5, Geometric Mean [1, 4]: 42.9 µg·h/mL
- Baseline-Unadjusted serum EPO Cmax, Geometric Mean [1, 4]: 14.1 µg/mL
- Baseline-Unadjusted serum EPO Tmax, Median [1, 4]: 0 h
- Baseline-Unadjusted serum EPO AUC0-5, Geometric Mean [1, 5]: 40.8 µg·h/mL
- Baseline-Unadjusted serum EPO Cmax, Geometric Mean [1, 5]: 13.2 µg/mL
- Baseline-Unadjusted serum EPO Tmax, Median [1, 5]: 4.50 h
- Baseline-Unadjusted serum EPO AUC0-5, Geometric Mean [1, 6]: 96.5 µg·h/mL
- Baseline-Unadjusted serum EPO Cmax, Geometric Mean [1, 6]: 30.2 µg/mL
- Baseline-Unadjusted serum EPO Tmax, Median [1, 6]: 0 h
- Baseline-Unadjusted serum EPO AUC0-5, Geometric Mean [1, 7]: 81.0 µg·h/mL
- Baseline-Unadjusted serum EPO Cmax, Geometric Mean [1, 7]: 24.4 µg/mL
- Baseline-Unadjusted serum EPO Tmax, Median [1, 7]: 0 h
- Baseline-Adjusted Serum EPO Cmax, Geometric Mean [2, 8]: 4.29 µg/mL
- Baseline-Adjusted Serum EPO Tmax, Median [2, 8]: 0 h
- Baseline-Adjusted Serum EPO Cmax, Geometric Mean [2, 9]: 4.32 µg/mL
- Baseline-Adjusted Serum EPO Tmax, Median [2, 9]: 4.78 h
- Baseline-Adjusted Serum EPO Cmax, Geometric Mean [2, 10]: 7.2 µg/mL
- Baseline-Adjusted Serum EPO Tmax, Median [2, 10]: 0 h
- Baseline-Adjusted Serum EPO Cmax, Geometric Mean [2, 11]: 10.1 µg/mL
- Baseline-Adjusted Serum EPO Tmax, Median [2, 11]: 2.00 h
- Baseline-Adjusted Serum EPO Cmax, Geometric Mean [2, 12]: 9.1 µg/mL
- Baseline-Adjusted Serum EPO Tmax, Median [2, 12]: 0 h
- Baseline-Adjusted Serum EPO Cmax, Geometric Mean [2, 13]: 9.1 µg/mL
- Baseline-Adjusted Serum EPO Tmax, Median [2, 13]: 4.50 h
- Baseline-Adjusted Serum EPO Cmax, Geometric Mean [2, 14]: 33.8 µg/mL
- Baseline-Adjusted Serum EPO Tmax, Median [2, 14]: 0 h
- Baseline-Adjusted Serum EPO Cmax, Geometric Mean [2, 15]: 14.5 µg/mL
- Baseline-Adjusted Serum EPO Tmax, Median [2, 15]: 1.00 h
- Baseline-Adjusted Serum EPO Cmax, Geometric Mean [2, 16]: 10.0 µg/mL
- Baseline-Adjusted Serum EPO Tmax, Median [2, 16]: 0 h
- Baseline-Adjusted Serum EPO Cmax, Geometric Mean [2, 17]: 11.8 µg/mL
- Baseline-Adjusted Serum EPO Tmax, Median [2, 17]: 4.50 h
- Baseline-Adjusted Serum EPO Cmax, Geometric Mean [2, 18]: 14.0 µg/mL
- Baseline-Adjusted Serum EPO Tmax, Median [2, 18]: 4.50 h
- Baseline-Adjusted Serum EPO Cmax, Geometric Mean [2, 19]: 18.1 µg/mL
- Baseline-Adjusted Serum EPO Tmax, Median [2, 19]: 1.75 h
- Baseline-Adjusted Serum EPO Cmax, Geometric Mean [2, 20]: 15.5 µg/mL
- Baseline-Adjusted Serum EPO Tmax, Median [2, 20]: 0.88 h
- Baseline-Adjusted Serum EPO Cmax, Geometric Mean [2, 21]: 8.00 µg/mL
- Baseline-Adjusted Serum EPO Tmax, Median [2, 21]: 2.08 h
- Baseline-Adjusted Serum EPO Cmax, Geometric Mean [2, 22]: 11.4 µg/mL
- Baseline-Adjusted Serum EPO Tmax, Median [2, 22]: 3.94 h
- Baseline-Adjusted Serum EPO Cmax, Geometric Mean [2, 23]: 18.9 µg/mL
- Baseline-Adjusted Serum EPO Tmax, Median [2, 23]: 2.47 h
- Baseline-Adjusted Serum EPO Cmax, Geometric Mean [2, 24]: 26.0 µg/mL
- Baseline-Adjusted Serum EPO Tmax, Median [2, 24]: 0 h
- Baseline-Adjusted Serum EPO Cmax, Geometric Mean [2, 25]: 14.6 µg/mL
- Baseline-Adjusted Serum EPO Tmax, Median [2, 25]: 0.92 h
- Baseline-Adjusted Serum EPO Cmax, Geometric Mean [2, 26]: 13.7 µg/mL
- Baseline-Adjusted Serum EPO Tmax, Median [2, 26]: 4.00 h
- Baseline-Adjusted Serum EPO Cmax, Geometric Mean [2, 27]: 173.0 µg/mL
- Baseline-Adjusted Serum EPO Tmax, Median [2, 27]: 4.63 h
- Baseline-Adjusted Serum EPO Cmax, Geometric Mean [2, 28]: 8.1 µg/mL
- Baseline-Adjusted Serum EPO Tmax, Median [2, 28]: 7.08 h
- Baseline-Adjusted Serum EPO Cmax, Geometric Mean [2, 29]: 14.8 µg/mL
- Baseline-Adjusted Serum EPO Tmax, Median [2, 29]: 4.75 h
- Baseline-Adjusted Serum EPO Cmax, Geometric Mean [2, 3]: 3.91 µg/mL
- Baseline-Adjusted Serum EPO Tmax, Median [2, 3]: 4.50 h
- Baseline-Adjusted Serum EPO Cmax, Geometric Mean [2, 4]: 6.8 µg/mL
- Baseline-Adjusted Serum EPO Tmax, Median [2, 4]: 0 h
- Baseline-Adjusted Serum EPO Cmax, Geometric Mean [2, 5]: 7.7 µg/mL
- Baseline-Adjusted Serum EPO Tmax, Median [2, 5]: 4.50 h
- Baseline-Adjusted Serum EPO Cmax, Geometric Mean [2, 6]: 21.4 µg/mL
- Baseline-Adjusted Serum EPO Tmax, Median [2, 6]: 0 h
- Baseline-Adjusted Serum EPO Cmax, Geometric Mean [2, 7]: 10.8 µg/mL
- Baseline-Adjusted Serum EPO Tmax, Median [2, 7]: 0 h
